Assay results from patent US11919908B2, “Substituted pyrrolo[2,3-d]pyrimidine compounds as JAK2 V617F inhibitors” (Incyte Corporation, priority 2020, dated 2024).

What was measured:
[1] = molecular target: T1, pseudo-kinase domain (JH2) of human Wild Type JAK2 (Homo sapiens, UniProt O60674, F794H/W659A/W777A); assay: JAK2 LanthaScreen JH2-WT Binding Assay; settings: 50 nM Fluorescent JAK2-JH2 Tracer, 1 hour at 25° C.
T1 construct: pseudo-kinase domain (JH2, amino-acids 536-812 with 3 surface mutations W659A, W777A, F794H); His (C); purchased BPS Bioscience 79463; host or cells: baculovirus expression system
Method: (§1) Example B. JAK2 LanthaScreen JH2-WT Binding Assay JAK2 JH2-WT binding assay utilizes pseudo-kinase domain (JH2, amino-acids 536-812 with 3 surface mutations […]) of human Wild Type JAK2 expressed as C-terminal His-Avi-tagged, biotinylated protein in a baculovirus expression system (BPS Bioscience, Catalog #79463). The assay was conducted in black 384-well polystyrene plates in a final reaction volume of 20 μL. JAK2 JH2-WT (0.145 nM) was incubated with compounds (100 nL serially diluted in DMSO) in the presence of 50 nM Fluorescent JAK2-JH2 Tracer (MedChem Express Catalog #HY-102055) and 0.25 nM Streptavidin-Tb cryptate (Cisbio Part #610SATLB) in assay buffer (50 mM Tris, pH=7.5, 10 mM MgCl2, 0.01% Brij-35, 0.1% BSA, 1 mM EGTA, 5% Glycerol and 5 mM DTT). Non-specific binding was accessed in the presence of 2 mM ATP. After incubation for 1 hour at 25° C., LanthaScreen signals were read on a PHERAstar FS plate reader (BMG LABTECH). Data was analyzed with IDBS XLfit and GraphPad Prism 5.0 software using a four parameter dose response curve to determine IC50 for each compound.

[2] = molecular target: T2, pseudo-kinase domain (JH2) of human V617F mutant JAK2 (Homo sapiens, UniProt O60674, F794H/V617F/W659A/W777A); assay: JAK2 LanthaScreen JH2-V617F Binding Assay; settings: 50 nM Fluorescent JAK2-JH2 Tracer, 1 hour at 25° C.
T2 construct: pseudo-kinase domain (JH2, amino-acids 536-812 with 3 surface mutations W659A, W777A, F794H); His (C); purchased BPS Bioscience 79498; host or cells: baculovirus expression system
Method: as §1, with “C.” for “B.”, “JH2-V617F” for “JH2-WT”, “V617F mutant” for “Wild Type”, “#79498).” for “#79463).”, “JH2-V617F (0.26” for “JH2-WT (0.145”

[3] = molecular target: T3, catalytic domain (JH1) of human JAK2 (Homo sapiens, UniProt O60674); assay: JAK2 LanthaScreen JH1 Binding Assay; settings: 50 nM Fluorescent JAK2-JH1 Tracer, 2 hours at 25° C.
T3 construct: catalytic domain (JH1, amino acids 826-1132) of human JAK2; FLAG (N); purchased Carna Biosciences 08-445-20N; host or cells: baculovirus expression system
Method: Example A. JAK2 LanthaScreen […] Binding Assay JAK2 JH1 binding assay utilizes catalytic domain (JH1, amino acids 826-1132) of human JAK2 expressed as N-terminal FLAG-tagged, biotinylated protein in a baculovirus expression system (Carna Biosciences, Product #08-445-20N). The assay was conducted in black 384-well polystyrene plates in a final reaction volume of 20 μL. JAK2 JH1 (1.5 nM) was incubated with compounds (100 nL serially diluted in DMSO) in the presence of 50 nM Fluorescent JAK2-JH1 Tracer and 0.5 nM Streptavidin-Tb cryptate (Cisbio Part #610SATLB) in assay buffer (50 mM Tris, pH=7.5, 10 mM MgCl2, 0.01% Brij-35, 0.1% BSA, 1 mM EGTA, 5% Glycerol and 5 mM DTT). Non-specific binding was accessed in the presence of 2 mM ATP. After incubation for 2 hours at 25° C., LanthaScreen signals were read on a PHERAstar FS plate reader (BMG LABTECH). Data was analyzed with IDBS XLfit and GraphPad Prism 5.0 software using a four parameter dose response curve to determine IC50 for each compound.

T3 sequence (O60674 826-1132): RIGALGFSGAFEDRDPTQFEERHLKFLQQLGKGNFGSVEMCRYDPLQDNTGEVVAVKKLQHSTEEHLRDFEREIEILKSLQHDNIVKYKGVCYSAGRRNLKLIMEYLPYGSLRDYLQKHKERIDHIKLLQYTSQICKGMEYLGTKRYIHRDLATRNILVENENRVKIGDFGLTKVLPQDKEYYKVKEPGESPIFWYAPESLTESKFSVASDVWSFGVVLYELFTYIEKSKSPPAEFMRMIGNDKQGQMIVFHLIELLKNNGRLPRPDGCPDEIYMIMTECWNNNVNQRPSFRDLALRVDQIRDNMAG
T1 sequence (O60674 536-812 W659A/W777A/F794H): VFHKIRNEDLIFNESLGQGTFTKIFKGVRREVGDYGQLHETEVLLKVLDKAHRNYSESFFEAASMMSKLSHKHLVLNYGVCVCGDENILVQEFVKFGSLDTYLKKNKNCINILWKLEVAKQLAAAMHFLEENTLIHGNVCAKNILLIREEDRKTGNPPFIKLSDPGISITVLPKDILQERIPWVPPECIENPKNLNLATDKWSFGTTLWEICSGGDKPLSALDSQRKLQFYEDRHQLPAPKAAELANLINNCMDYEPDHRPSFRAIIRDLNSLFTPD
T2 sequence (O60674 536-812 V617F/W659A/W777A/F794H): as the sequence (O60674 536-812 W659A/W777A/F794H) above, with V82F counted along it

Compound | IC50 [1] [µM] | IC50 [2] [µM] | IC50 [3] [µM]
CN(C)S(=O)(=O)c1ccc(-c2[nH]c3nc(N)[nH]c(=O)c3c2-c2cccc3c2OCCO3)cc1 [Example 7, 4-(2-Amino-5-(2,3-dihydrobenzo[b][1,4]dioxin-5-yl)-4-oxo-4,7-dihydro-3H-pyrrolo [2,3-d]pyrimidin-6-yl)-N,N-dimethylbenzene sulfonamide] | 0.5 to 1 | 0.5 to 1 | > 2.5
COc1cc2ccccc2cc1-c1c(-c2ccc(S(=O)(=O)N(C)C)cc2)[nH]c2nc(N)[nH]c(=O)c12 [Example 33, 4-(2-Amino-5-(3-methoxynaphthalen-2-yl)-4-oxo-4,7-dihydro-3H-pyrrolo[2,3-d]pyrimidin-6-yl)-N,N-dimethylbenzene sulfonamide] | 0.5 to 1 | 0.5 to 1 | > 2.5
COc1ccccc1-c1c(-c2ccc(CN3CCC(S(C)(=O)=O)CC3)cc2)[nH]c2nc(N)[nH]c(=O)c12 [Example 53] | 0.1 to 0.5 | 0.1 to 0.5 | > 2.5
CN(C)S(=O)(=O)c1ccc(-c2[nH]c3nc(N)[nH]c(=O)c3c2-c2cccc3c2OCCC3)cc1 [Example 10, 4-(2-Amino-5-(chroman-8-yl)-4-oxo-4,7-dihydro-3H-pyrrolo[2,3-d]pyrimidin-6-yl)-N,N-dimethylbenzene sulfonamide] | 0.5 to 1 | 0.5 to 1 | > 2.5
COc1cccc(F)c1-c1c(-c2ccc(S(=O)(=O)N(C)C)cc2)[nH]c2nc(N)[nH]c(=O)c12 [Example 68, 4-(2-Amino-5-(2-fluoro-6-methoxyphenyl)-4-oxo-4,7-dihydro-3H-pyrrolo[2,3-d]pyrimidin-6-yl)-N,N-dimethylbenzenesulfonamide] | 0.5 to 1 | 0.5 to 1 | > 2.5
COc1ccccc1-c1c(-c2ccc(C(=O)N3CCOCC3)cc2)[nH]c2nc(N)[nH]c(=O)c12 [Example 54, 2-Amino-5-(2-methoxyphenyl)-6-(4-(morpholine-4-carbonyl)phenyl)-3,7-dihydro-4H-pyrrolo[2,3-d]pyrimidin-4-one] | 0.5 to 1 | 0.5 to 1 | > 2.5
CN(C)S(=O)(=O)c1ccc(-c2[nH]c3nc(N)[nH]c(=O)c3c2-c2cccc3cn[nH]c23)cc1 [Example 20, 4-(2-Amino-5-(1H-indazol-7-yl)-4-oxo-4,7-dihydro-3H-pyrrolo[2,3-d]pyrimidin-6-yl)-N,N-dimethylbenzene sulfonamide] | > 2.5 | > 2.5 | > 2.5
CN(C)S(=O)(=O)c1ccc(-c2[nH]c3nc(N)[nH]c(=O)c3c2-c2ccccc2F)cc1 [Example 64, 4-(2-Amino-5-(2-fluorophenyl)-4-oxo-4,7-dihydro-3H-pyrrolo[2,3-d]pyrimidin-6-yl)-N,N-dimethylbenzene-sulfonamide] | 0.1 to 0.5 | 0.1 to 0.5 | 0.1 to 0.5
CN(C)S(=O)(=O)c1ccc(-c2[nH]c3nc(N)[nH]c(=O)c3c2-c2cnn(Cc3ccncc3)c2)cc1 [Example 32, 4-(2-Amino-4-oxo-5-(1-(pyridin-4-ylmethyl)-1H-pyrazol-4-yl)-4,7-dihydro-3H-pyrrolo[2,3-d]pyrimidin-6-yl)-N,N-dimethylbenzene sulfonamide] | 1 to 2.5 | 1 to 2.5 | > 2.5
CN(C)S(=O)(=O)c1ccc(-c2[nH]c3nc(N)[nH]c(=O)c3c2C2=CCCC2)cc1 [Example 47, 4-(2-Amino-5-(cyclopent-1-en-1-yl)-4-oxo-4,7-dihydro-3H-pyrrolo[2,3-d]pyrimidin-6-yl)-N,N-dimethylbenzenesulfonamide] | 0.1 to 0.5 | 0.1 to 0.5 | 0.1 to 0.5
CN(C)S(=O)(=O)c1ccc(-c2[nH]c3nc(N)[nH]c(=O)c3c2-c2ccccc2CC#N)cc1 [Example 15, 4-(2-Amino-5-(2-(cyanomethyl)phenyl)-4-oxo-4,7-dihydro-3H-pyrrolo[2,3-d]pyrimidin-6-yl)-N,N-dimethylbenzene sulfonamide] | > 2.5 | > 2.5 | > 2.5
CCc1c(-c2ccccc2)[nH]c2nc(N)[nH]c(=O)c12 [Example 55, 2-Amino-5-ethyl-6-phenyl-3,7-dihydro-4H-pyrrolo[2,3-d]pyrimidin-4-one] | > 2.5 | > 2.5 | > 2.5
4-(2-Amino-5- (2,3-difluorobenzofuran-6- yl)-4-oxo-4,7-dihydro-3H- pyrrolo[2,3-d]pyrimidin-6- yl)-N,N-dimethylbenzene sulfonamide [Example 26] | 0.5 to 1 | 0.5 to 1 | 1 to 2.5
Nc1nc2[nH]c(-c3ccccc3)c(-c3ccccc3C(F)(F)F)c2c(=O)[nH]1 [Example 59, 2-Amino-6-phenyl-5-(2-(trifluoro-methyl)phenyl)-3,7-dihydro-4H-pyrrolo[2,3-d] pyrimidin-4-one] | > 2.5 | > 2.5 | > 2.5
COc1ccc(C)cc1-c1c(-c2ccc(S(=O)(=O)N(C)C)cc2)[nH]c2nc(N)[nH]c(=O)c12 [Example 66, 4-(2-Amino-5-(2-methoxy-5-methylphenyl)-4-oxo-4,7-dihydro-3H-pyrrolo[2,3-d]pyrimidin-6-yl)-N,N-dimethylbenzenesulfonamide] | 0.1 to 0.5 | 0.1 to 0.5 | > 2.5
CN(C)S(=O)(=O)c1ccc(-c2[nH]c3nc(N)[nH]c(=O)c3c2-c2cccc3c2OCC3)cc1 [Example 41, 4-(2-Amino-5-(2,3-dihydrobenzofuran-7-yl)-4-oxo-4,7-dihydro-3H-pyrrolo[2,3-d]pyrimidin-6-yl)-N,N-dimethylbenzene sulfonamide] | 0.1 to 0.5 | 0.1 to 0.5 | > 2.5
CN(C)S(=O)(=O)c1ccc(-c2[nH]c3nc(N)[nH]c(=O)c3c2-c2cccc3c2cnn3C)cc1 [Example 16, 4-(2-Amino-5-(1-methyl-1H-indazol-4-yl)-4-oxo-4,7-dihydro-3H-pyrrolo[2,3-d]pyrimidin-6-yl)-N,N-dimethylbenzene sulfonamide] | > 2.5 | > 2.5 | > 2.5
CN(C)S(=O)(=O)c1ccc(-c2[nH]c3nc(N)[nH]c(=O)c3c2-c2cnn(C3CCOCC3)c2)cc1 [Example 37, 4-(2-Amino-4-oxo-5-(1-(tetrahydro-2H-pyran-4-yl)-1H-pyrazol-4-yl)-4,7-dihydro-3H-pyrrolo[2,3-d]pyrimidin-6-yl)-N,N-dimethylbenzene sulfonamide] | > 2.5 | 1 to 2.5 | > 2.5
CN(C)S(=O)(=O)c1ccc(-c2[nH]c3nc(N)[nH]c(=O)c3c2-c2cnn(Cc3cccnc3)c2)cc1 [Example 29, 4-(2-Amino-4-oxo-5-(1-(pyridin-3-ylmethyl)-1H-pyrazol-4-yl)-4,7-dihydro-3H-pyrrolo[2,3-d]pyrimidin-6-yl)-N,N-dimethylbenzene sulfonamide] | > 2.5 | > 2.5 | > 2.5
